Source: ChEMBL document CHEMBL3507680, “University of Dundee, Gates Library screen for HepG2 cell viability”

Assay: Human HepG2 cell viability assay in 384 well format
Type: toxicity, cell-based
Design: dose 125 nL, time 70.5 hour; concentration not given beside the values
Conditions: HepG2 cells, read-out: Inhibition

Cn1c(CN2CCC(O)CC2)nnc1C1CCCN(C(=O)C2CNC2)C1 (stereo not given)
cytotoxicity at 70.5 h: -5.47%

Cc1ccc(N2CCN(C(=O)CN3C[C@@H]4CC[C@H]3C4)CC2=O)cc1
cytotoxicity at 70.5 h: 24.1%

O=S1(=O)COCCN1Cc1ccc(F)c(C(F)(F)F)c1
cytotoxicity at 70.5 h: -10.2%

COCCn1ccnc1C1CCN(C(=O)CSc2nnc(C)o2)CC1
cytotoxicity at 70.5 h: 9.15%

O=C(NCCc1csc(-c2ncccn2)n1)c1cnn2c1CCCC2
cytotoxicity at 70.5 h: -18.5%

CC(C)(C)n1cc(C2=CCN(CCNC(=O)c3ccccc3)CC2)cn1
cytotoxicity at 70.5 h: -5.4%

CCCOc1ccc(C(=O)N2C[C@@H](CN3CCCC3)[C@@H](CO)C2)cc1Cl
cytotoxicity at 70.5 h: 1.78%

CC(=O)NCC1CCC2(CCN(c3ncnc4oc(C)nc34)CC2)O1 (stereo not given)
cytotoxicity at 70.5 h: 21.7%

CN(CCNC(=O)c1cccnc1)S(C)(=O)=O
cytotoxicity at 70.5 h: -5.32%

O=C(N1CCOCC1)N1CC[C@@](O)(c2ccccc2)[C@H]2CCCC[C@@H]21
cytotoxicity at 70.5 h: -1.75%

CN(C)CCC1CCCCN1Cc1cnn(C)c1C1CC1 (stereo not given)
cytotoxicity at 70.5 h: 2.52%

Cc1ccc(C)c(OCc2cc(C(=O)N(C)Cc3nonc3C)no2)c1
cytotoxicity at 70.5 h: 3.12%

CN(C)CC(C)(C)CN1CCC(c2ccnc(-c3cccc(O)c3)c2)C1 (stereo not given)
cytotoxicity at 70.5 h: -8.34%

Cc1nc2c(C)cccc2cc1C(=O)N1CCC2(CCCNC2)C1 (stereo not given)
cytotoxicity at 70.5 h: -11.4%

COC(=O)CCCC(=O)N1CCCCC1c1ccc(F)cc1 (stereo not given)
cytotoxicity at 70.5 h: 2.01%

CS(=O)(=O)N1CCCn2nc(CNc3cc(C#N)ccn3)cc2C1
cytotoxicity at 70.5 h: -6.16%

Cc1cnccc1NCCNC1CCSCC1
cytotoxicity at 70.5 h: -17.3%

CC(C)c1cc(C(=O)NCCc2nc3c(s2)CCC3)n(C)n1
cytotoxicity at 70.5 h: 8.71%

COCCN1CCCC2(CCN(c3cc(C)c(C#N)c(C)n3)C2)C1=O (stereo not given)
cytotoxicity at 70.5 h: 14.9%

COc1ccc(-c2n[nH]cc2CN(C)Cc2nccn2C)c(F)c1
cytotoxicity at 70.5 h: -3.33%

CCn1nc(C)cc1C(=O)NCc1cccnc1N(C)C
cytotoxicity at 70.5 h: 2.09%

Cc1cc(C)c(C#N)c(NCCSc2nncn2C)n1
cytotoxicity at 70.5 h: -6.87%

CCCn1cc(-c2cc(C(=O)N(C)C)c3cccc(C)c3n2)cn1
cytotoxicity at 70.5 h: -7.56%

COc1cccn(Cc2nnc(-c3cccc(F)c3)o2)c1=O
cytotoxicity at 70.5 h: -3.37%

CN(C)c1cc(N(C)Cc2cc(C(C)(C)C)n[nH]2)ncn1
cytotoxicity at 70.5 h: -2.08%

Cc1cnc(C)c(-c2cccc(-c3ccn(CCN4CCCC4)n3)c2)n1
cytotoxicity at 70.5 h: 11.2%

CC(C)n1cnnc1CN(C)Cc1cnc(-c2ccccn2)nc1
cytotoxicity at 70.5 h: -5.94%

COCC1CCN(S(=O)(=O)N2C[C@H](c3ccccc3)[C@@H](N)C2)CC1
cytotoxicity at 70.5 h: -1.87%

CCc1nnc(CN(C)C[C@@H]2CCCN3CCCC[C@H]23)o1
cytotoxicity at 70.5 h: -3.62%

CCCOc1ccc(C(=O)N2CC[C@H]3CC[C@@H](C2)N3)cc1Cl
cytotoxicity at 70.5 h: -14.3%

O=C(CCN1CCNCC1)N1CCC2(CC1)c1ccccc1CC2O (stereo not given)
cytotoxicity at 70.5 h: -6.68%

NCC1Cc2cc(Oc3cc(F)c(CN4CCCC4)c(F)c3)ccc2O1 (stereo not given)
cytotoxicity at 70.5 h: -11.4%

N#Cc1cccc(NC2CC(=O)N(Cc3ccccc3Cl)C2)n1 (stereo not given)
cytotoxicity at 70.5 h: 18.9%

COc1cc(-c2nc(C3CC3)nn2-c2ccnc(C)c2)nc(OC)n1
cytotoxicity at 70.5 h: -14.3%

Cc1cc(F)ccc1OC1(C(=O)O)CCN(Cc2cccnc2)CC1
cytotoxicity at 70.5 h: 3.7%

CN(C)Cc1nnc(C2CCCN(c3nc(C(N)=O)cs3)C2)n1C (stereo not given)
cytotoxicity at 70.5 h: -7.8%

CC(Cc1ccccn1)N(C)C(=O)c1ncc[nH]1 (stereo not given)
cytotoxicity at 70.5 h: -8.42%

Cc1nccn1CCN(C)C(=O)c1cn(-c2ccccc2)nn1
cytotoxicity at 70.5 h: 33.5%

Cc1cc(F)ccc1N1CCC(N2C[C@@H](CN(C)C)[C@@H](CO)C2)CC1
cytotoxicity at 70.5 h: -6.24%

NC(=O)CN1CCC(C(=O)NCc2nc(-c3ccc(F)cc3)cs2)CC1
cytotoxicity at 70.5 h: -0.391%

CCc1nnc(CN(CC)C(=O)C2CC(=O)N(C(C)(C)C)C2)o1 (stereo not given)
cytotoxicity at 70.5 h: -4.84%

COc1nc(C)c(C(=O)N2CCc3[nH]nc(C4CCCC4)c3C2)s1
cytotoxicity at 70.5 h: -2%

CCc1cc(N2CCC(NCCc3ccccc3F)CC2)nc(C)n1
cytotoxicity at 70.5 h: 5.19%

CN(CCc1cn[nH]c1)C(=O)C1CC(=O)N(Cc2cccnc2)C1 (stereo not given)
cytotoxicity at 70.5 h: 34.9%

CSCc1nc(CNC(=O)C2CCCN(CC(N)=O)C2)cs1 (stereo not given)
cytotoxicity at 70.5 h: 11.4%

COc1ccccc1OCc1cc(C(=O)N2CCCCCC2CO)n[nH]1 (stereo not given)
cytotoxicity at 70.5 h: 8.73%

COc1ccccc1OCCCN(C)c1cc(C)nc(N)n1
cytotoxicity at 70.5 h: -4.86%

O=C(NCCc1cnccn1)c1cccc(S(=O)(=O)NC2CCOC2)c1 (stereo not given)
cytotoxicity at 70.5 h: -1.15%

C[C@@H]1CN(C(=O)CCN2CCCC2)CC[C@@]1(O)C1CCC1
cytotoxicity at 70.5 h: 1.37%

CC(C)C(NC(=O)c1ccc(=O)[nH]c1)c1nnc2n1CCNCC2 (stereo not given)
cytotoxicity at 70.5 h: -6.19%

O=C(c1nc2sccn2c1-c1ncc[nH]1)N1CCCCC1
cytotoxicity at 70.5 h: -17.8%

O=C(CCC(=O)N1CCC(Cc2ccc(CO)cc2)C1)c1ccccc1 (stereo not given)
cytotoxicity at 70.5 h: -13.8%

CN(Cc1nc2ccsc2c(=O)[nH]1)C[C@@H]1CCCN2CCCC[C@H]12
cytotoxicity at 70.5 h: 14.5%

O=C(CN1CCOC1=O)N1CCc2nnc(Cc3ccccc3)n2CC1
cytotoxicity at 70.5 h: 17.1%

COCCC1(C(=O)O)CCCN(Cc2cc3c(cc2Cl)OCO3)C1 (stereo not given)
cytotoxicity at 70.5 h: -5.22%
